Earlier results, collected in patent US7935365B2, “Glycerophospholipids for the improvement of cognitive functions” (Enzymotec, Ltd., priority 2003, dated 2011).
Like-named read-outs stand apart in the source and are kept apart here.

Compound	Improvement of the ADHD index, previously reported (Rugino and Copley (2001))	Improvement of the ADHD index, previously reported (Alhambra et al. (1995))
NC(=O)C[S+]([O-])C(c1ccccc1)c1ccccc1 (centres unmarked) [modafinil]	> 2.5 SD	–
COC(=O)C(c1ccccc1)C1CCCCN1 (racemic) [methylphenidate, DL-threo-Methylphenidate]	–	exceed 80%
